Test results from the supplement of paper PMC11451515.

How the values were obtained:
Details in all cases: 48 h
NOMO1 [1] = assay: cell viability relative to DMSO control; higher = less cytotoxic
Procedure, shortened: (§1)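 Cells were incubated for 48 h at 37°C before CellTiter-Glo One luminescence was read. The cells were NOMO1 or SEM (500 cells/well) or P12-Ichikawa (1000 cells/well) leukemia cells, adapted for at least four passages in each medium and seeded in 1536-well plates (5 μl). Dosing used library compounds in DMSO applied by pin over 11 threefold points, 47 μM to 0.79 nM. Viability is the per-plate percentage of DMSO wells, with cell-free wells as background.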

P12-Ichikawa [2] = assay: as above
Procedure, shortened: as §1

SEM cells [3] = assay: as above
Procedure, shortened: as §1

NOMO1 [4] = assay: AUC of viability dose-response curve (% viability x log10 dose units); higher = less sensitive
Procedure, shortened: (§2)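 Area under the curve was integrated by trapezoidal rule from a log-logistic fit of normalised viability, with curves exceeding full viability scaled and quality-control failures removed. The fit had four parameters over log10 doses. Viability came from CellTiter-Glo One luminescence, normalised per plate to DMSO and cell-free wells, after leukemia cells adapted to each medium (500 or 1000 cells/well, 1536-well plates) were exposed to library compounds in DMSO for 48 h at 37°C. The 11 threefold doses ran from 47 μM to 0.79 nM.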

P12-Ichikawa [5] = assay: as above
Procedure, shortened: as §2

SEM cells [6] = assay: as above
Procedure, shortened: as §2

C#C[C@]1(O)CC[C@H]2[C@@H]3CCc4cc(O)ccc4[C@H]3CC[C@@]21C
cell viability [%]
Details | NOMO1 [1] | P12-Ichikawa [2] | SEM cells [3]
HPLM + 10% dialyzed FBS, 0.000781 µM | 101 | 102 | 86.5
HPLM + 10% dialyzed FBS, 0.00234 µM | 116 | 98.3 | 103
HPLM + 10% dialyzed FBS, 0.00702 µM | 104 | 95.9 | 99.6
HPLM + 10% dialyzed FBS, 0.0211 µM | 104 | 97.4 | 96.6
HPLM + 10% dialyzed FBS, 0.0632 µM | 102 | 95.7 | 92.2
HPLM + 10% dialyzed FBS, 0.19 µM | 105 | 102 | 99.4
HPLM + 10% dialyzed FBS, 0.569 µM | 109 | 89.5 | 103
HPLM + 10% dialyzed FBS, 1.71 µM | 96 | 97.3 | 98.9
HPLM + 10% dialyzed FBS, 5.12 µM | 97.9 | 95.8 | 105
HPLM + 10% dialyzed FBS, 15.4 µM | 68 | 75.3 | 68
HPLM + 10% dialyzed FBS, 46.1 µM | 51.3 | 47.2 | 47.1
RPMI 5 mM glucose + 10% FBS, 0.000781 µM | 97.7 | 98.3 | 92.3
RPMI 5 mM glucose + 10% FBS, 0.00234 µM | 93.9 | 95.6 | 116
RPMI 5 mM glucose + 10% FBS, 0.00702 µM | 99.9 | 89.4 | 115
RPMI 5 mM glucose + 10% FBS, 0.0211 µM | 95.9 | 93.6 | 113
RPMI 5 mM glucose + 10% FBS, 0.0632 µM | 105 | 92.3 | 105
RPMI 5 mM glucose + 10% FBS, 0.19 µM | 91.9 | 94.3 | 107
RPMI 5 mM glucose + 10% FBS, 0.569 µM | 87 | 96.7 | 111
RPMI 5 mM glucose + 10% FBS, 1.71 µM | 91.5 | 83.7 | 104
RPMI 5 mM glucose + 10% FBS, 5.12 µM | 89 | 89.1 | 99.8
RPMI 5 mM glucose + 10% FBS, 15.4 µM | 85 | 67.7 | 62.9
RPMI 5 mM glucose + 10% FBS, 46.1 µM | 80.4 | 42.6 | 48.7
RPMI 5 mM glucose + 10% dialyzed FBS, 0.000781 µM | 97.2 | 87.5 | 93.7
RPMI 5 mM glucose + 10% dialyzed FBS, 0.00234 µM | 103 | 86.7 | 111
RPMI 5 mM glucose + 10% dialyzed FBS, 0.00702 µM | 87.4 | 88.9 | 108
RPMI 5 mM glucose + 10% dialyzed FBS, 0.0211 µM | 101 | 92.3 | 108
RPMI 5 mM glucose + 10% dialyzed FBS, 0.0632 µM | 99.4 | 93.3 | 108
RPMI 5 mM glucose + 10% dialyzed FBS, 0.19 µM | 106 | 92.4 | 98.2
RPMI 5 mM glucose + 10% dialyzed FBS, 0.569 µM | 92.4 | 95.6 | 95.1
RPMI 5 mM glucose + 10% dialyzed FBS, 1.71 µM | 78.3 | 85.6 | 114
RPMI 5 mM glucose + 10% dialyzed FBS, 5.12 µM | 89.1 | 81.8 | 100
RPMI 5 mM glucose + 10% dialyzed FBS, 15.4 µM | 71.3 | 72.5 | 68.8
RPMI 5 mM glucose + 10% dialyzed FBS, 46.1 µM | 48.4 | 58.3 | 57.6

AUC of viability dose-response curve
Details | NOMO1 [4] | P12-Ichikawa [5] | SEM cells [6]
HPLM + 10% dialyzed FBS | 444 | 441 | 442
RPMI 5 mM glucose + 10% FBS | 442 | 418 | 440
RPMI 5 mM glucose + 10% dialyzed FBS | 429 | 410 | 448
